Measurements taken from the supplement of paper PMC10307832.

Assays:
Experiment in all cases: relative viability (nuclei count vs DMSO), 5 days (fraction); higher = more cells survive
[1] = compound: C1CC1C(=O)NC2=NNC3=C2C=CC(=C3)C4=CC(=CC=C4)C(=O)NC5CC5 [XMD13-2] + Nc1nc2[nH]cc(CCc3ccc(C(=O)N[C@@H](CCC(=O)O)C(=O)O)cc3)c2c(=O)[nH]1 [Pemetrexed] (partner 0.2 µM)
Summary of the method: (§1)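 The day after seeding in 1536-well plates, lung cancer cell lines were treated by pin tool with a single drug, or with a fixed anchor-drug dose together with five library-drug doses (not always all listed) in √10 steps. After 5 days, a combined fix-and-stain solution (final 0.05% Triton X-100, 1% formaldehyde, 1 ug/ml Hoechst) was added. Nuclei counted on 4× images gave relative viability as treated counts over vehicle counts, reported as the median of duplicate plates.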

[2] = compound: C1CC1C(=O)NC2=NNC3=C2C=CC(=C3)C4=CC(=CC=C4)C(=O)NC5CC5 [XMD13-2] + O=C(c1cc(Cc2n[nH]c(=O)c3ccccc23)ccc1F)N1CCN(C(=O)C2CC2)CC1 [Olaparib] (partner 8 µM)
Summary of the method: as §1

[3] = compound: Cc1ccc(C(=O)Nc2cccc(C(F)(F)F)c2)cc1Nc1cncc(C(N)=O)c1 [ALW-II-49-7] + CC(=O)Nc1cccc(-n2c(=O)n(C3CC3)c(=O)c3c(Nc4ccc(I)cc4F)n(C)c(=O)c(C)c32)c1 [Trametinib] (partner 0.02 µM)
Summary of the method: as §1

[4] = compound: Cc1ccc(C(=O)Nc2cccc(C(F)(F)F)c2)cc1Nc1cncc(C(N)=O)c1 [ALW-II-49-7] + O=C(CCCCCCC(=O)Nc1ccccc1)NO [Vorinostat] (partner 1 µM)
Summary of the method: as §1

## HCC-366
[1]; first compound 0.05 µM
  relative viability: 0.147
[1]; first compound 0.1581 µM
  relative viability: 0.175
[1]; first compound 0.5 µM
  relative viability: 0.164
[1]; first compound 1.581 µM
  relative viability: 0.172
[1]; first compound 5 µM
  relative viability: 0.187
[2]; first compound 0.05 µM
  relative viability: 0.448
[2]; first compound 0.1581 µM
  relative viability: 0.328
[2]; first compound 0.5 µM
  relative viability: 0.444
[2]; first compound 1.581 µM
  relative viability: 0.355
[2]; first compound 5 µM
  relative viability: 0.358
[3]; first compound 0.08 µM
  relative viability: 0.33
[3]; first compound 0.253 µM
  relative viability: 0.361
[3]; first compound 0.8 µM
  relative viability: 0.404
[3]; first compound 2.53 µM
  relative viability: 0.275
[3]; first compound 8 µM
  relative viability: 0.288
[4]; first compound 0.08 µM
  relative viability: 0.49
[4]; first compound 0.253 µM
  relative viability: 0.363
[4]; first compound 0.8 µM
  relative viability: 0.258
[4]; first compound 2.53 µM
  relative viability: 0.343
[4]; first compound 8 µM
  relative viability: 0.21

## HCC-78
[1]; first compound 0.05 µM
  relative viability: 0.921
[1]; first compound 0.1581 µM
  relative viability: 0.918
[1]; first compound 0.5 µM
  relative viability: 0.883
[1]; first compound 1.581 µM
  relative viability: 0.962
[1]; first compound 5 µM
  relative viability: 0.964
[2]; first compound 0.05 µM
  relative viability: 0.895
[2]; first compound 0.1581 µM
  relative viability: 0.781
[2]; first compound 0.5 µM
  relative viability: 0.812
[2]; first compound 1.581 µM
  relative viability: 0.667
[2]; first compound 5 µM
  relative viability: 0.733
[3]; first compound 0.08 µM
  relative viability: 0.867
[3]; first compound 0.253 µM
  relative viability: 0.702
[3]; first compound 0.8 µM
  relative viability: 0.633
[3]; first compound 2.53 µM
  relative viability: 0.572
[3]; first compound 8 µM
  relative viability: 0.78
[4]; first compound 0.08 µM
  relative viability: 0.428
[4]; first compound 0.253 µM
  relative viability: 0.358
[4]; first compound 0.8 µM
  relative viability: 0.408
[4]; first compound 2.53 µM
  relative viability: 0.342
[4]; first compound 8 µM
  relative viability: 0.485

## PC-14
[1]; first compound 0.05 µM
  relative viability: 0.14
[1]; first compound 0.1581 µM
  relative viability: 0.131
[1]; first compound 0.5 µM
  relative viability: 0.118
[1]; first compound 1.581 µM
  relative viability: 0.148
[1]; first compound 5 µM
  relative viability: 0.13
[2]; first compound 0.05 µM
  relative viability: 0.299
[2]; first compound 0.1581 µM
  relative viability: 0.259
[2]; first compound 0.5 µM
  relative viability: 0.266
[2]; first compound 1.581 µM
  relative viability: 0.271
[2]; first compound 5 µM
  relative viability: 0.467
[3]; first compound 0.08 µM
  relative viability: 0.722
[3]; first compound 0.253 µM
  relative viability: 0.826
[3]; first compound 0.8 µM
  relative viability: 0.717
[3]; first compound 2.53 µM
  relative viability: 0.683
[3]; first compound 8 µM
  relative viability: 0.665
[4]; first compound 0.08 µM
  relative viability: 0.474
[4]; first compound 0.253 µM
  relative viability: 0.544
[4]; first compound 0.8 µM
  relative viability: 0.668
[4]; first compound 2.53 µM
  relative viability: 0.562
[4]; first compound 8 µM
  relative viability: 0.588

## NCI-H2087
[1]; first compound 0.05 µM
  relative viability: 0.635
[1]; first compound 0.1581 µM
  relative viability: 0.661
[1]; first compound 0.5 µM
  relative viability: 0.624
[1]; first compound 1.581 µM
  relative viability: 0.67
[1]; first compound 5 µM
  relative viability: 0.583
[2]; first compound 0.05 µM
  relative viability: 0.643
[2]; first compound 0.1581 µM
  relative viability: 0.607
[2]; first compound 0.5 µM
  relative viability: 0.691
[2]; first compound 1.581 µM
  relative viability: 0.562
[2]; first compound 5 µM
  relative viability: 0.567
[3]; first compound 0.08 µM
  relative viability: 0.214
[3]; first compound 0.253 µM
  relative viability: 0.211
[3]; first compound 0.8 µM
  relative viability: 0.228
[3]; first compound 2.53 µM
  relative viability: 0.189
[3]; first compound 8 µM
  relative viability: 0.188
[4]; first compound 0.08 µM
  relative viability: 0.687
[4]; first compound 0.253 µM
  relative viability: 0.597
[4]; first compound 0.8 µM
  relative viability: 0.662
[4]; first compound 2.53 µM
  relative viability: 0.508
[4]; first compound 8 µM
  relative viability: 0.38

## HOP-62
[1]; first compound 0.05 µM
  relative viability: 0.264
[1]; first compound 0.1581 µM
  relative viability: 0.339
[1]; first compound 0.5 µM
  relative viability: 0.299
[1]; first compound 1.581 µM
  relative viability: 0.285
[1]; first compound 5 µM
  relative viability: 0.278
[2]; first compound 0.05 µM
  relative viability: 0.307
[2]; first compound 0.1581 µM
  relative viability: 0.697
[2]; first compound 0.5 µM
  relative viability: 0.391
[2]; first compound 5 µM
  relative viability: 0.489
[3]; first compound 0.08 µM
  relative viability: 0.389
[3]; first compound 0.253 µM
  relative viability: 0.364
[3]; first compound 0.8 µM
  relative viability: 0.402
[3]; first compound 2.53 µM
  relative viability: 0.452
[3]; first compound 8 µM
  relative viability: 0.465
[4]; first compound 0.08 µM
  relative viability: 0.547
[4]; first compound 0.253 µM
  relative viability: 0.696
[4]; first compound 0.8 µM
  relative viability: 0.588
[4]; first compound 2.53 µM
  relative viability: 0.523
[4]; first compound 8 µM
  relative viability: 0.298

## EKVX
[1]; first compound 0.05 µM
  relative viability: 0.457
[1]; first compound 0.1581 µM
  relative viability: 0.324
[1]; first compound 0.5 µM
  relative viability: 0.432
[1]; first compound 5 µM
  relative viability: 0.428
[2]; first compound 0.05 µM
  relative viability: 0.984
[2]; first compound 0.1581 µM
  relative viability: 0.871
[2]; first compound 0.5 µM
  relative viability: 0.907
[2]; first compound 5 µM
  relative viability: 0.907
[3]; first compound 0.08 µM
  relative viability: 0.266
[3]; first compound 0.253 µM
  relative viability: 0.347
[3]; first compound 0.8 µM
  relative viability: 0.482
[3]; first compound 2.53 µM
  relative viability: 0.317
[3]; first compound 8 µM
  relative viability: 0.298
[4]; first compound 0.08 µM
  relative viability: 0.407
[4]; first compound 0.253 µM
  relative viability: 0.747
[4]; first compound 0.8 µM
  relative viability: 0.734
[4]; first compound 2.53 µM
  relative viability: 0.678
[4]; first compound 8 µM
  relative viability: 0.636

## EMC-BAC-2
[1]; first compound 0.05 µM
  relative viability: 0.42
[1]; first compound 0.1581 µM
  relative viability: 0.451
[1]; first compound 0.5 µM
  relative viability: 0.431
[1]; first compound 1.581 µM
  relative viability: 0.457
[1]; first compound 5 µM
  relative viability: 0.494
[2]; first compound 0.05 µM
  relative viability: 0.575
[2]; first compound 0.1581 µM
  relative viability: 0.526
[2]; first compound 0.5 µM
  relative viability: 0.499
[2]; first compound 1.581 µM
  relative viability: 0.465
[2]; first compound 5 µM
  relative viability: 0.439
[3]; first compound 0.08 µM
  relative viability: 0.966
[3]; first compound 0.253 µM
  relative viability: 0.92
[3]; first compound 0.8 µM
  relative viability: 0.998
[3]; first compound 2.53 µM
  relative viability: 0.857
[3]; first compound 8 µM
  relative viability: 0.755
[4]; first compound 0.08 µM
  relative viability: 0.462
[4]; first compound 0.253 µM
  relative viability: 0.419
[4]; first compound 0.8 µM
  relative viability: 0.301
[4]; first compound 2.53 µM
  relative viability: 0.409
[4]; first compound 8 µM
  relative viability: 0.281

## HARA
[1]; first compound 0.05 µM
  relative viability: 0.224
[1]; first compound 0.1581 µM
  relative viability: 0.273
[1]; first compound 0.5 µM
  relative viability: 0.269
[1]; first compound 1.581 µM
  relative viability: 0.208
[1]; first compound 5 µM
  relative viability: 0.323
[2]; first compound 0.05 µM
  relative viability: 0.76
[2]; first compound 0.1581 µM
  relative viability: 1.11
[2]; first compound 0.5 µM
  relative viability: 0.831
[2]; first compound 1.581 µM
  relative viability: 0.987
[2]; first compound 5 µM
  relative viability: 0.643
[3]; first compound 0.08 µM
  relative viability: 1.02
[3]; first compound 0.253 µM
  relative viability: 0.513
[3]; first compound 0.8 µM
  relative viability: 0.794
[3]; first compound 2.53 µM
  relative viability: 0.64
[3]; first compound 8 µM
  relative viability: 0.675
[4]; first compound 0.08 µM
  relative viability: 0.608
[4]; first compound 0.253 µM
  relative viability: 0.597
[4]; first compound 0.8 µM
  relative viability: 0.634
[4]; first compound 2.53 µM
  relative viability: 0.594
[4]; first compound 8 µM
  relative viability: 0.58
